Laboratory results published in PubChem BioAssay (NCI).
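Growth conditions: 96-well plates. Treatment: test compound, 48 hours, 5 concentrations. Analysis: linear interpolation between bracketing concentrations; unreached endpoints set to highest concentration. GI50: concentration for 50% inhibition of growth. TGI marks complete inhibition of growth.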

Legend:
Test in all cases: growth of human tumour cells (NCI), 48 h
786-0 renal = test system: 786-0 renal
A498 renal = test system: A498 renal
A549 NSCLC = test system: A549 NSCLC
ACHN renal = test system: ACHN renal
BT-549 breast = test system: BT-549 breast
CAKI-1 renal = test system: CAKI-1 renal
CCRF-CEM leukemia = test system: CCRF-CEM leukemia
COLO 205 colon = test system: COLO 205 colon
DU-145 prostate = test system: DU-145 prostate
EKVX NSCLC = test system: EKVX NSCLC
HCC-2998 colon = test system: HCC-2998 colon
HCT-116 colon = test system: HCT-116 colon
HCT-15 colon = test system: HCT-15 colon
HL-60(TB) leukemia = test system: HL-60(TB) leukemia
HOP-62 NSCLC = test system: HOP-62 NSCLC
HOP-92 NSCLC = test system: HOP-92 NSCLC
HS 578T breast = test system: HS 578T breast
HT29 colon = test system: HT29 colon
IGROV1 ovarian = test system: IGROV1 ovarian
K-562 leukemia = test system: K-562 leukemia
KM12 colon = test system: KM12 colon
LOX IMVI melanoma = test system: LOX IMVI melanoma
M14 melanoma = test system: M14 melanoma
MALME-3M melanoma = test system: MALME-3M melanoma
MCF7 breast = test system: MCF7 breast
MDA-MB-231 breast = test system: MDA-MB-231 breast
MDA-MB-435 = test system: MDA-MB-435
MOLT-4 leukemia = test system: MOLT-4 leukemia
NCI-H226 lung = test system: NCI-H226 lung

For `COc1ccc([C@@H](O)c2cc(-c3ncnc4cc(N5CCOCC5)ccc34)c(F)cc2Cl)nn1`, the GI50 (786-0 renal) was 1100 nM, the TGI (786-0 renal) was 25.3 µM and the GI50 (A498 renal) was 228 nM. It also gave a TGI (A498 renal) of 943 nM, a GI50 (A549 NSCLC) of 2770 nM and a TGI (A549 NSCLC) of 21 µM. The GI50 (ACHN renal) was 2530 nM, the TGI (ACHN renal) was 91 µM and the GI50 (BT-549 breast) was 1440 nM. For the same compound, the TGI (BT-549 breast) was 20.3 µM, the GI50 (CAKI-1 renal) was 1990 nM and the TGI (CAKI-1 renal) was > 100 µM. For the same compound, the GI50 (CCRF-CEM leukemia) was 3.5 µM, the TGI (CCRF-CEM leukemia) was 26.7 µM and the GI50 (COLO 205 colon) was 2850 nM. For the same compound, the TGI (COLO 205 colon) was 16.5 µM, the GI50 (DU-145 prostate) was 3.89 µM and the TGI (DU-145 prostate) was > 100 µM. For the same compound, the GI50 (EKVX NSCLC) was 5.35 µM, the TGI (EKVX NSCLC) was 42.9 µM and the GI50 (HCC-2998 colon) was 2850 nM. For the same compound, the TGI (HCC-2998 colon) was 18.7 µM, the GI50 (HCT-116 colon) was 3.29 µM and the TGI (HCT-116 colon) was 21.4 µM. For the same compound, the GI50 (HCT-15 colon) was 3.08 µM, the TGI (HCT-15 colon) was 23.2 µM and the GI50 (HL-60(TB) leukemia) was 360 nM. The TGI (HL-60(TB) leukemia) was 17.7 µM, the GI50 (HOP-62 NSCLC) was 12.5 µM and the TGI (HOP-62 NSCLC) was > 100 µM. For the same compound, the GI50 (HOP-92 NSCLC) was 382 nM, the TGI (HOP-92 NSCLC) was > 100 µM and the GI50 (HS 578T breast) was 750 nM. The TGI (HS 578T breast) was 15.3 µM, the GI50 (HT29 colon) was 1970 nM and the TGI (HT29 colon) was 20.9 µM. The GI50 (IGROV1 ovarian) was 469 nM, the TGI (IGROV1 ovarian) was 4.99 µM and the GI50 (K-562 leukemia) was 3.78 µM. The TGI (K-562 leukemia) was > 100 µM, the GI50 (KM12 colon) was 5.47 µM and the TGI (KM12 colon) was 24.1 µM. It also gave a GI50 (LOX IMVI melanoma) of 2840 nM, a TGI (LOX IMVI melanoma) of 24.8 µM and a GI50 (M14 melanoma) of 4.91 µM. The TGI (M14 melanoma) was 28.5 µM, the GI50 (MALME-3M melanoma) was 6.4 µM and the TGI (MALME-3M melanoma) was 55.8 µM. The GI50 (MCF7 breast) was 592 nM, the TGI (MCF7 breast) was 15.7 µM and the GI50 (MDA-MB-231 breast) was 4.96 µM. The TGI (MDA-MB-231 breast) was > 100 µM, the GI50 (MDA-MB-435) was 4.18 µM and the TGI (MDA-MB-435) was 37.4 µM. The GI50 (MOLT-4 leukemia) was 1080 nM, the TGI (MOLT-4 leukemia) was 41.1 µM and the GI50 (NCI-H226 lung) was 3.82 µM.
